The test system of data set [1] is fibrogenic cytokines such as TGF-β1, bFGF, PDGF, and EGF. The conditions noted are these: Zhang S et al. 1998; cited from earlier work.
The conditions of data set [2]: oral tablet and capsule forms, clinical trials; effects appear to be dose related; cited from earlier work.
A short description of data set [3]: adverse events associated with pirfenidone therapy in patients. The data set is classed as in vivo, patient. Conditions: dosing escalation scheme described herein (up to 2,403 mg per day, full dosage about Day 15). Here is the method: As an investigational drug, pirfenidone is provided in tablet and capsule forms principally for oral administration. Various formulations have been tested and adopted in clinical trials and other research and experiments. […] Many of these effects can interfere with everyday activities and quality of life. These effects appear to be dose related. The adverse reactions associated with pirfenidone therapy are exacerbated when pirfenidone is administered at these higher doses.
The present invention overcomes the unmet clinical need by providing an improved, optimized dose escalation scheme for the administration of pirfenidone. The dose escalation scheme of the present invention provides pirfenidone in an amount such that the full maximum dosage is not reached for at least one week. In a preferred embodiment, the full maximum dosage of pirfenidone is not reached until about Day 15 of treatment. The method of the present invention allows for a maximum dosage of 2,403 mg of pirfenidone per day to be administered to a patient and also reduces the incidence of adverse events associated with the administration of pirfenidone by more accurately matching dose escalation with tolerance development in the patient. […]

Data set [4] deals with TNF-α. The conditions noted are these: from macrophages and other cells; Cain et al. 1998; cited from earlier work.

Here are results for 1 molecule from patent publication US7696236B2, “Method of providing pirfenidone therapy to a patient” (InterMune, Inc., priority 2006, dated 2010).

As to `Cc1ccc(=O)n(-c2ccccc2)c1` [pirfenidone, 5-methyl-1-phenyl-2-(1H)-pyridone], the “excessive biosynthesis or release of various fibrogenic cytokines” value in data set [1] is listed as “inhibits”. Also, the “most common adverse reactions or events associated with pirfenidone therapy” value in data set [2] was “gastrointestinal upset, nausea, fatigue, somnolence, dizziness, headache, and photosensitivity rash”. In data set [3], the “adverse events, such as somnolence and photosensitivity reaction, as the dosage escalates” value is given as “decrease”. For the same molecule, the “synthesis and release of excessive amounts of TNF-α” value in data set [4] is given as “blocks”.
